The values that follow come from patent US20240285547A1, “NEPHROTOXICITY REDUCING AGENT” (Nippon Shinyaku Co., Ltd., priority 2021, published 2024).

The test system of series [1] is C57BL/6J male mice. Put plainly: Evaluation of nephrotoxicity reducing effects of D-sorbitol: serum BUN and Cre after tail vein administration of PMO dosing solutions. To be noted: D-sorbitol in PMO dosing solution vs dosing solution comprising no D-sorbitol.
Method: Next, the antisense oligomer of PMO No. 2 was dissolved in a solution obtained by dissolving D-sorbitol (manufactured by Maruishi Pharmaceutical Co., Ltd.) with physiological saline to prepare a dosing solution comprising the antisense oligomer and D-sorbitol at the concentrations shown in Table 9. Also, the antisense oligomer of PMO No. 3 was dissolved in a solution obtained by dissolving D-sorbitol with water for injection to prepare a dosing solution comprising the antisense oligomer and D-sorbitol at the concentrations shown in Table 10.
The obtained dosing solutions were administered into the tail vein of 6-week-old C57BL/6J male mice (N=3) at 4 and 10 mL/kg. Next day, serum was collected from the mice, and the blood urea nitrogen (BUN) values and blood creatinine (Cre) values were measured with the urease-GIDH method and the enzymatic method, respectively, using automatic biochemical analyzers JCA-BM8060 (manufactured by JEOL Ltd.). It was determined that the nephrotoxicity was reduced in a case where both of the BUN values and Cre values decreased in the mice to which the dosing solution comprising D-sorbitol has been administered, compared to the mice to which the dosing solution comprising no D-sorbitol has been administered.
Series [2] in a line: Evaluation of precipitation suppressing effects with D-mannitol (absorbance at 620 nm in presence of ions assumed to be in urine). The class given is physicochemical. To be noted: D-mannitol as medium for PMO Nos. 1, 2, 3, 5, 6, 7, ions assumed to be in urine, 37° C. Here is the method:
The amount of precipitation in the presence of ions assumed to be in urine and precipitation suppressing effects of D-mannitol were evaluated on the antisense oligomers of PMO Nos. 1, 2, 3, 5, 6, and 7 (SEQ ID NO: 1, 2, 3, 5, 6, and 7) among those listed in Table 1 to further verify their utility for pharmaceutical applications.

The test system of series [3] is C57BL/6J male mice. Put plainly: Evaluation of nephrotoxicity reducing effects of D-mannitol: serum BUN and Cre after tail vein administration of PMO dosing solutions. The note with it: D-mannitol in PMO dosing solution vs control dosing solution comprising no D-mannitol.
From the text: The antisense oligomers of PMO Nos. 1, 2, 6, 7, and 10 were each dissolved in water for injection comprising 0.9% sodium chloride (manufactured by Otsuka Pharmaceutical Co., Ltd.) to prepare a control dosing solution comprising each of the antisense oligomers at the concentrations shown in Tables 2, 3, 6, 7, and 8 and comprising no D-mannitol. Also, the antisense oligomers of PMO Nos. 3 and 4 were each dissolved in 5% glucose (manufactured by Otsuka Pharmaceutical Co., Ltd.) to prepare a control dosing solution comprising each of the antisense oligomers at the concentrations shown in Tables 4 and 5 and comprising no D-mannitol. […]
The obtained dosing solutions were administered into the tail vein of 6-week-old C57BL/6J male mice at 4, 10, and 20 mL/kg. Next day, serum was collected from the mice, and the blood urea nitrogen (BUN) values and blood creatinine (Cre) values were measured with the urease-GIDH method and the enzymatic method, respectively, using automatic biochemical analyzers JCA-BM6050 or JCA-BM8060 (manufactured by JEOL Ltd.).

Turning to `OC[C@@H](O)[C@@H](O)[C@H](O)[C@@H](O)CO` [D-sorbitol], the Nephrotoxicity reducing effect entry in the series with C57BL/6J male mice [1] was “reduce nephrotoxicity”.

As for `OC[C@@H](O)[C@@H](O)[C@H](O)[C@H](O)CO` [D-mannitol], the Precipitation suppressing effect entry in series [2] is given as “suppress the precipitation of antisense oligomers”. Further, the Nephrotoxicity reducing effect result with C57BL/6J male mice [3] is “reduce nephrotoxicity”.
